Tests used:
Ba/F3 BCR-FGFR2 = target: T1, Ba/F3 BCR-FGFR2 (Homo sapiens, UniProt P21802); test: Ba/F3 cell viability assay (CellTiter-Glo 2.0); type: cell-based; details: Ba/F3 cell data, BCR-FGFR2 fusion, 48 hours
T1 construct: BCR (fusion partner); host or cells: Ba/F3; the other entry of the earlier key: BCR (P11274, Breakpoint cluster region protein)

Ba/F3 BCR-FGFR1 = target: T2, Ba/F3 BCR-FGFR1 (Homo sapiens, UniProt P11362); test: Ba/F3 cell viability assay (CellTiter-Glo 2.0); type: cell-based; details: Ba/F3 cell data, BCR-FGFR1 fusion, 48 hours
T2 construct: BCR (fusion partner); host or cells: Ba/F3; the other entry of the earlier key: BCR (P11274, Breakpoint cluster region protein)
T2 sequence (P11362 478-767 limits assumed): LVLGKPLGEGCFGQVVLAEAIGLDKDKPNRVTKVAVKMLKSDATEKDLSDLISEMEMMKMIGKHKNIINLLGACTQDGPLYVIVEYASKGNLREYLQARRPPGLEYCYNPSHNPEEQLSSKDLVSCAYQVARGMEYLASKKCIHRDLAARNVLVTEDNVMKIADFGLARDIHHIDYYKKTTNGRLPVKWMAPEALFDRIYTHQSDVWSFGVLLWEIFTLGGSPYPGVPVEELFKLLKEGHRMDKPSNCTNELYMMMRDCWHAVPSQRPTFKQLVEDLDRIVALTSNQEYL

Ba/F3 FGFR3-BAIAP2L1 = target: T3, Ba/F3 FGFR3-BAIAP2L1 (Homo sapiens, UniProt P22607); test: Ba/F3 cell viability assay (CellTiter-Glo 2.0); type: cell-based; details: Ba/F3 cell data, FGFR3-BAIAP2L1 fusion, 48 hours
T3 construct: BAIAP2L1 (fusion partner, Q9UHR4 if human); host or cells: Ba/F3; the other entry of the earlier key: BAIAP2L1 (Q9UHR4, BAR/IMD domain-containing adapter protein 2-like 1)
T3 sequence (P22607 397-758 limits assumed): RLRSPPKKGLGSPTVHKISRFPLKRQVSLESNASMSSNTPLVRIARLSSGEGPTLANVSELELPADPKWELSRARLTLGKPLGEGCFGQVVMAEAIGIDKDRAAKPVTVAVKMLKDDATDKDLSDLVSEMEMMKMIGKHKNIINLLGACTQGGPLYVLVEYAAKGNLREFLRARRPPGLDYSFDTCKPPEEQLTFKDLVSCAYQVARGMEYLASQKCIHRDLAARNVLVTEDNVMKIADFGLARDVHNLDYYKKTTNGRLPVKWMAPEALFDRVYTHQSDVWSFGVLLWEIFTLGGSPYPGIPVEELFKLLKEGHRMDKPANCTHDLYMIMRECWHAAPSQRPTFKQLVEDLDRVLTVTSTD

FGFR3 (V555M) = target: T4, FGFR3 (V555M) (Homo sapiens, UniProt P22607, V555M); test: Kinase binding assay (Kd), kinase-tagged T7 phage, affinity beads, qPCR; details: in vitro binding assay, 11-point 3-fold dilution series
T4 construct: made in house; host or cells: E. coli (BL21-derived) infected with T7 phage
T4 sequence (P22607 23-806 V555M): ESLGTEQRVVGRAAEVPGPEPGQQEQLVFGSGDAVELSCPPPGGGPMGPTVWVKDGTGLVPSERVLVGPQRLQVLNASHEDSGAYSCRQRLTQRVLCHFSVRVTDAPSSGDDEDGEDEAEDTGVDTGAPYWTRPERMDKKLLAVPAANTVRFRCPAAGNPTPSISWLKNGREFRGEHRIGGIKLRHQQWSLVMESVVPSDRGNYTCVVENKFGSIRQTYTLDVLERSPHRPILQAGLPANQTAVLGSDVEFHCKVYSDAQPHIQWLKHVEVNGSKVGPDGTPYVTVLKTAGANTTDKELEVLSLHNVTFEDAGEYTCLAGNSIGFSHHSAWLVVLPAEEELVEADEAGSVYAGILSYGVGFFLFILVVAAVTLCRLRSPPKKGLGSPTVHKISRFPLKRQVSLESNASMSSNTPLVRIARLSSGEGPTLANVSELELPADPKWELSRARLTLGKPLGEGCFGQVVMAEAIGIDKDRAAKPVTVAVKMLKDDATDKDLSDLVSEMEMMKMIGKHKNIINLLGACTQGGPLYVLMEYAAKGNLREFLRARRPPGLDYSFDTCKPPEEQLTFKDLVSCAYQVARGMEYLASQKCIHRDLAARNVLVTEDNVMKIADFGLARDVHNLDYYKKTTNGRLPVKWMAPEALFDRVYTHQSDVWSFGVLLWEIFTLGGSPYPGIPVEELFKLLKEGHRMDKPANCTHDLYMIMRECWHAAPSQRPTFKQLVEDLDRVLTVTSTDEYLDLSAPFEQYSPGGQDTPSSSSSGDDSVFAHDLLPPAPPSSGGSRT
Procedure: (§1) Kinase-tagged T7 phage strains were prepared in an E. coli host derived from the BL21 strain. E. coli were grown to log-phase and infected with T7 phage and incubated with shaking at 32° C. until lysis. The lysates were centrifuged and filtered to remove cell debris. Streptavidin-coated magnetic beads were treated with biotinylated small molecule ligands for 30 minutes at room temperature to generate affinity resins for kinase assays. The liganded beads were blocked with excess biotin and washed with blocking buffer SeaBlock (Pierce), 1% BSA, 0.05% Tween 20, 1 mM DTT to remove unbound ligand and to reduce non-specific binding. Binding reactions were assembled by combining kinases, liganded affinity beads, and test compounds in 1× binding buffer (20% SeaBlock, 0.17×PBS, 0.05% Tween 20, 6 mM DTT).
(§2) Test compounds were prepared as 111× stocks in 100% DMSO. Kds were determined using an 11-point 3-fold compound dilution series with three DMSO control points. All compounds for Kd measurements are distributed by acoustic transfer (non-contact dispensing) in 100% DMSO. The compounds were then diluted directly into the assays such that the final concentration of DMSO was 0.9%. All reactions performed in polypropylene 384-well plate. Each was a final volume of 0.02 ml. The assay plates were incubated at room temperature with shaking for 1 hour and the affinity beads were washed with wash buffer (1×PBS, 0.05% Tween 20). The beads were then re-suspended in elution buffer (1×PBS, 0.05% Tween 20, 0.5 μM non-biotinylated affinity ligand) and incubated at room temperature with shaking for 30 minutes. The kinase concentration in the eluates was measured by qPCR.
(§3) Binding constants were calculated with a standard dose-response curve using the Hill equation: […]
(§4) The Hill Slope was set to −1. Curves were fitted using a non-linear least square fit with the Levenberg-Marquardt algorithm.

FGFR2 = target: T5, FGFR2 (Homo sapiens, UniProt P21802); test: as above; details: in vitro binding assay, 11-point 3-fold dilution series
T5 construct: made in house; host or cells: E. coli (BL21-derived) infected with T7 phage
T5 sequence (P21802 22-821): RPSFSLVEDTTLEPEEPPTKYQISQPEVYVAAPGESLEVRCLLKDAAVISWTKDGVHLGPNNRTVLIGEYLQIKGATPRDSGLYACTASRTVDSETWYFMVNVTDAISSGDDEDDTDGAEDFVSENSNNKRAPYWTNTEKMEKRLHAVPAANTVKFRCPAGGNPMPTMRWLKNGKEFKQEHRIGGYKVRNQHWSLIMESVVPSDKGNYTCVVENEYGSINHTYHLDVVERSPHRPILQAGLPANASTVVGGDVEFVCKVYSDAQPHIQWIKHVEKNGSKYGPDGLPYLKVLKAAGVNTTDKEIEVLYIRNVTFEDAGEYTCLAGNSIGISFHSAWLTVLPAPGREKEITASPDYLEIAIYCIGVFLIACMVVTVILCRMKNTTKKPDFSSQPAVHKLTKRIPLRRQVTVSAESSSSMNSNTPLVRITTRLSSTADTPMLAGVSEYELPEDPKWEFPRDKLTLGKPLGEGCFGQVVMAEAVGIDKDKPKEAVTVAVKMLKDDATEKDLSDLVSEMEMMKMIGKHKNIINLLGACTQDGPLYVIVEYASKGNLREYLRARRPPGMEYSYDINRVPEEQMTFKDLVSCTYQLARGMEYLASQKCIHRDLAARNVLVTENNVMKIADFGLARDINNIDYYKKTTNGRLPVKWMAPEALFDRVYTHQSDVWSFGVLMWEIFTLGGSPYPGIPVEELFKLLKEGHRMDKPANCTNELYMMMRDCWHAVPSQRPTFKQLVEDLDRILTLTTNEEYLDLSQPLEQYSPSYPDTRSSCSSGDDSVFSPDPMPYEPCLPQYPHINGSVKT
Procedure: as §1, §2, §3, §4

FGFR4 = target: T6, FGFR4 (Homo sapiens, UniProt P22455); test: as above; details: in vitro binding assay, 11-point 3-fold dilution series
T6 construct: made in house; host or cells: E. coli (BL21-derived) infected with T7 phage
T6 sequence (P22455 22-802): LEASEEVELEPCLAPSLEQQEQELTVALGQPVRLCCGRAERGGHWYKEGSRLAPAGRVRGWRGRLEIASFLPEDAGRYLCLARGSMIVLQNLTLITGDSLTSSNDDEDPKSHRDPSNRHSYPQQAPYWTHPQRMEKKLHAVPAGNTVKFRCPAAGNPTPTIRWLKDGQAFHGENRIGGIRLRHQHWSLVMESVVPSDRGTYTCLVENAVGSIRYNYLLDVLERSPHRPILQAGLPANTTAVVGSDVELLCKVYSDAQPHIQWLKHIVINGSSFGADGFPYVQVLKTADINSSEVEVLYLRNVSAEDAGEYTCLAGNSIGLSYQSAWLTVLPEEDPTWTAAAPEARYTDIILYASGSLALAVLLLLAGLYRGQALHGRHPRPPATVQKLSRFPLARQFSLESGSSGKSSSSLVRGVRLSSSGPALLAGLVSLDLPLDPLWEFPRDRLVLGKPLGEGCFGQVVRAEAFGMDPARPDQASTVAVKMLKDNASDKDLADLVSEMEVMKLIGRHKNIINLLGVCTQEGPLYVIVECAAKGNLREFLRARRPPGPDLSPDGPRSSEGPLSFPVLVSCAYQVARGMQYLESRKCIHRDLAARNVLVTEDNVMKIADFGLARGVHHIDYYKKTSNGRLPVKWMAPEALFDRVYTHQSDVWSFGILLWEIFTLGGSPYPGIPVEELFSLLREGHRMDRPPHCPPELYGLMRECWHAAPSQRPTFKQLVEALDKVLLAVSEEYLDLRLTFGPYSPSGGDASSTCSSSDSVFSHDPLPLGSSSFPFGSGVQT
Procedure: as §1, §2, §3, §4

FGFR3 = target: T7, FGFR3 (Homo sapiens, UniProt P22607); test: as above; details: in vitro binding assay, 11-point 3-fold dilution series
T7 construct: made in house; host or cells: E. coli (BL21-derived) infected with T7 phage
T7 sequence (P22607 23-806): as the sequence (P22607 23-806 V555M) above, with M533V counted along it
Procedure: as §1, §2, §3, §4

FGFR1 = target: T8, FGFR1 (Homo sapiens, UniProt P11362); test: as above; details: in vitro binding assay, 11-point 3-fold dilution series
T8 construct: made in house; host or cells: E. coli (BL21-derived) infected with T7 phage
T8 sequence (P11362 22-822): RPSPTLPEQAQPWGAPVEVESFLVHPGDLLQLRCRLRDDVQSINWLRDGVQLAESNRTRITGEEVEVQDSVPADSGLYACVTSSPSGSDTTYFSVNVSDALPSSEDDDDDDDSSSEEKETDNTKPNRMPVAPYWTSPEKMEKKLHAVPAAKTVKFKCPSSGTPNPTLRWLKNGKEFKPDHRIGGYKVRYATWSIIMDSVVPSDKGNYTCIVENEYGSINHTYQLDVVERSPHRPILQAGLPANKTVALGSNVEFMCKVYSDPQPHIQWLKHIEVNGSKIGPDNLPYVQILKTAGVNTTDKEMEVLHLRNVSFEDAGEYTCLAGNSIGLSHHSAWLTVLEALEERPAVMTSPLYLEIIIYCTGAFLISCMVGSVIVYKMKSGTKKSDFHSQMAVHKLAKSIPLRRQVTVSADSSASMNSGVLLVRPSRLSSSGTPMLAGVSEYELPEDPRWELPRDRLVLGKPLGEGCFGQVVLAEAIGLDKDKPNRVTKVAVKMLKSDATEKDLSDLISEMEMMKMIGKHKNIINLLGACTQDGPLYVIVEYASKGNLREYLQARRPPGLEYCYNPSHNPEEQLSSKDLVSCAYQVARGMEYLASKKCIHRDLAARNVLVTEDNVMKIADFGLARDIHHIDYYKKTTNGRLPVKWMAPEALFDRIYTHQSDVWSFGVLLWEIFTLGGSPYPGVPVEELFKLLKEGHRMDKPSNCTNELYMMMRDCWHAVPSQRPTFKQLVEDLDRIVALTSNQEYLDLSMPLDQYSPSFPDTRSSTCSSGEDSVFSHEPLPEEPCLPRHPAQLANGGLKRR
Procedure: as §1, §2, §3, §4

KatoIIII = test: Cancer cell line cell viability assay (CellTiter-Glo 2.0); type: cell-based; details: 72 hours
RT112/84 = test: as above; type: cell-based; details: Homo sapiens; RT112/84 (FGFR3-fusion) cell viability, 72 hours
Source text: (§5) Experimental Purpose: To detect the change of intracellular ATP by Cell Titer-Glo® and to evaluate the inhibitory effect of the compounds on cancer cell lines by determining the in vitro IC50 value of the compounds.
(§6) Cell Titer-Glo® 2.0 Luminescent cell viability assay reagent was purchased from Promega (Madison, WI). RT112/84 and KG-1 cell lines were purchased from American Type Culture Collection (Manassas, VA). UM-UC-14 cell line was purchased from Sigma (St. Louis, MO). RT112/84, UM-UC-14, and KG-1 cells were cultured in RPMI1640 media supplemented with 10% fetal bovine serum. Cultures were maintained at 37° C. in a humidified atmosphere of 5% CO2 and 95% air.
(§7) Cell Viability Assay Procedure: Cells were plated in 96-well clear bottom/white plates (Corning #3903) at 10,000 cells/well in 100 μl of media, incubated overnight. The next day, test compound DMSO stock solutions were made at 10 mM and 2 μM final concentration.
(§8) Compounds were then added to cells in a 9-dose, […] dilution series starting at 30 μM with an HP 300e Digital Dispenser (each dose was applied in triplicate). DMSO was backfilled to each well up to 301 nL total volume of test compound+DMSO, and a total of 301 nL DMSO was added to a control/no test compound well in triplicate. The cells in cell culture plates were incubated with the compounds at 37° C. and 5% CO2 for 72 hours. Then 50 μl of Cell Titer Glo 2.0 reagent was added to each well of the cell culture plates. The contents were covered from light and mixed on an orbital shaker at room temperature for 10 min.
(§9) Luminescence was recorded by a Synergy H1 Microplate Reader (Biotek, Winooski, VT). Cells were assessed as a percentage of DMSO only treated control cells. Curves were plotted and IC50 values were calculated using the GraphPad Prism 8 program based on a sigmoidal dose-response equation (4 parameter).

KG-1 = test: as above; type: cell-based; details: Homo sapiens; KG-1 (FGFR1-fusion) cell viability, 72 hours
Source text: as §5, §6, §7, §8, §9

Ba/F3 ETV5-FGFR4 = target: T9, Ba/F3 ETV5-FGFR4 (Homo sapiens, UniProt P22455); test: Ba/F3 cell viability assay (CellTiter-Glo 2.0); type: cell-based; details: Ba/F3 cell data, ETV5-FGFR4 fusion, 48 hours
T9 construct: host or cells: Ba/F3; the other entry of the earlier key: ETV5 (P41161, ETS translocation variant 5)
T9 sequence (P22455 467-755 limits assumed): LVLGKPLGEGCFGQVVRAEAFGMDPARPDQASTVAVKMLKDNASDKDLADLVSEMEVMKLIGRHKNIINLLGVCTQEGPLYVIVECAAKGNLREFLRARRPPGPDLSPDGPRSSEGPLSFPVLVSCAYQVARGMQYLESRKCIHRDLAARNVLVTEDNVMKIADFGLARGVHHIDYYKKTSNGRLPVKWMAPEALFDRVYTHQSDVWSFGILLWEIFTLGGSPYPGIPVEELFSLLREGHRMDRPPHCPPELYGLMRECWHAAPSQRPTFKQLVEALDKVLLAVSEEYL
Source text: Experimental Purpose: Recombinant kinase fusions are transduced into parental Ba/F3, which becomes dependent upon this constitutive kinase activity for IL3-independent survival. Inhibition of kinase activity leads to cell death, which is monitored using CellTiter-Glo® 2.0 (Promega) which measures intracellular ATP concentration that in turn serves as a marker for viability. BCR-FGFR1 Ba/F3, BCR-FGFR2 and FGFR3-BAIAP2L1 Ba/F3 were obtained from Advanced Cellular Dynamics (Seattle, WA). ETV6-FGFR4 was obtained from Kyinno (Waltham, MA).
Cell Viability Assay Procedure: Cell Titer-Glo® 2.0 Luminescent cell viability assay reagent was purchased from Promega (Madison, WI). Ba/F3 cell lines were cultured in RPMI1640 media supplemented with 10% fetal bovine serum. Cultures were maintained at 37° C. in a humidified atmosphere of 5% CO2 and 95% air.
Cells were plated in 96-well clear bottom/white plates (Corning #3903) at 10,000 cells/well in 100 μl of media, incubated overnight. The next day, test compound DMSO stock solutions were made at 10 mM and 2 μM final concentration. Compounds were then added to cells in a 9-dose, 10-fold dilution series starting at 30 μM with an HP 300e Digital Dispenser (each dose was applied in triplicate). DMSO was backfilled to each well up to 301 nL total volume of test compound+DMSO, and a total of 301 nL DMSO was added to a control/no test compound well in triplicate. The cells in cell culture plates were incubated with the compounds at 37° C. and 5% CO2 for 48 hours. Then 50 μl of Cell Titer Glo 2.0 reagent was added to each well of the cell culture plates. The contents were covered from light and mixed on an orbital shaker at room temperature for 10 min. Luminescence was recorded by a Synergy H1 Microplate Reader (Biotek, Winooski, VT). Cells were assessed as a percentage of DMSO only treated control cells. Curves were plotted and IC50 values were calculated using the GraphPad Prism 8 program based on a sigmoidal dose-response equation (4 parameter).

T1 sequence (P21802 481-770 limits assumed): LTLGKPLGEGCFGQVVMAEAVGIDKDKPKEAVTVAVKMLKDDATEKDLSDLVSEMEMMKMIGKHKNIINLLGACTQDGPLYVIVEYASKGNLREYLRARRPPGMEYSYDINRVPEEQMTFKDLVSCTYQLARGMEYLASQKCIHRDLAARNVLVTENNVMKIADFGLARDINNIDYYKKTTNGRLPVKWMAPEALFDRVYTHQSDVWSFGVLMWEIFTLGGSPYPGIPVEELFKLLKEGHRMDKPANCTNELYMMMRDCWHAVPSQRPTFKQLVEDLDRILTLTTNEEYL

| Compound | Kd (Ba/F3 BCR-FGFR2) [nM] | Kd (Ba/F3 BCR-FGFR1) [nM] | Kd (Ba/F3 FGFR3-BAIAP2L1) [nM] | Kd (FGFR3 (V555M)) [nM] | Kd (FGFR2) [nM] | Kd (FGFR4) [nM] | Kd (FGFR3) [nM] | Kd (FGFR1) [nM] | IC50 (KatoIIII) [nM] | IC50 (RT112/84) [nM] | IC50 (KG-1) [nM] | Kd (Ba/F3 ETV5-FGFR4) [nM] |
| --- | --- | --- | --- | --- | --- | --- | --- | --- | --- | --- | --- | --- |
| C=CC(=O)N1CCC(n2ncc(-c3cc(O[C@H](CO)c4ccc(F)cn4)c4c(C#N)cnn4c3)c2C)CC1 [Example 1, 4-[(1S)-1-(5-fluoro-2-pyridyl)-2-hydroxy-ethoxy]-6-[5-methyl-1-(1-prop-2-enoyl-4-piperidyl)pyrazol-4-yl]pyrazolo[1,5-a]pyridine-3-carbonitrile] | 100 to 250 | 250 to 1000 | 0.1 to 100 | 0.1 to 100 | 0.1 to 100 | 100 to 250 | 0.1 to 100 | 100 to 250 | 100 to 250 | 100 to 250 | ≥ 1000 | 250 to 1000 |
| C=CC(=O)N1CCC(n2ncc(-c3cc(O[C@@H](CO)c4ccc(F)cn4)c4c(C#N)cnn4c3)c2C)CC1 [Example 2, 4-[(1R)-1-(5-fluoro-2-pyridyl)-2-hydroxy-ethoxy]-6-[5-methyl-1-(1-prop-2-enoyl-4-piperidyl)pyrazol-4-yl]pyrazolo[1,5-a]pyridine-3-carbonitrile] | ≥ 1000 | ≥ 1000 | 250 to 1000 | 250 to 1000 | 250 to 1000 | ≥ 1000 | 250 to 1000 | 250 to 1000 | 250 to 1000 | ≥ 1000 | ≥ 1000 | ≥ 1000 |
| C=CC(=O)N1CCC2(CC1)CC(n1ncc(-c3cc(O[C@H](CO)c4ccccn4)c4c(C#N)cnn4c3)c1C)C2 [Example 8, (S)-6-(1-(7-acryloyl-7-azaspiro[3.5]nonan-2-yl)-5-methyl-1H-pyrazol-4-yl)-4-(2-hydroxy-1-(pyridin-2-yl)ethoxy)pyrazolo[1,5-a]pyridine-3-carbonitrile] | 100 to 250 | 100 to 250 | 0.1 to 100 | 0.1 to 100 | 0.1 to 100 | 0.1 to 100 | 0.1 to 100 | 0.1 to 100 | 100 to 250 | 100 to 250 | 100 to 250 | 250 to 1000 |
| C=CC(=O)N1CCC2(CC1)CC(n1ncc(-c3cc(O[C@H](CO)c4ccc(F)cn4)c4c(C#N)cnn4c3)c1C)C2 [Example 9, (S)-6-(1-(7-acryloyl-7-azaspiro[3.5]nonan-2-yl)-5-methyl-1H-pyrazol-4-yl)-4-(1-(5-fluoropyridin-2-yl)-2-hydroxyethoxy)pyrazolo[1,5-a]pyridine-3-carbonitrile] | 100 to 250 | 250 to 1000 | 0.1 to 100 | 0.1 to 100 | 0.1 to 100 | 0.1 to 100 | 0.1 to 100 | 0.1 to 100 | 250 to 1000 | 250 to 1000 | ≥ 1000 | 250 to 1000 |
| C=CC(=O)N1CCC2(CC1)CC(n1nnc(-c3cc(O[C@H](CO)c4ccc(F)cn4)c4c(C#N)cnn4c3)c1C)C2 [Example 13, (S)-6-(1-(7-acryloyl-7-azaspiro[3.5]nonan-2-yl)-5-methyl-1H-1,2,3-triazol-4-yl)-4-(1-(5-fluoropyridin-2-yl)-2-hydroxyethoxy)pyrazolo[1,5-a]pyridine-3-carbonitrile] | 100 to 250 | 250 to 1000 | 0.1 to 100 | 0.1 to 100 | 0.1 to 100 | 0.1 to 100 | 0.1 to 100 | 0.1 to 100 | 100 to 250 | 100 to 250 | 0.1 to 100 | 250 to 1000 |
| C=CC(=O)N1CCC2(CC1)CC(n1ncc(-c3cc(OC(CO)c4ccn(C)n4)c4c(C#N)cnn4c3)c1C)C2 (stereo not drawn) [Example 14, 6-(1-(7-acryloyl-7-azaspiro[3.5]nonan-2-yl)-5-methyl-1H-pyrazol-4-yl)-4-(2-hydroxy-1-(1-methyl-1H-pyrazol-3-yl)ethoxy)pyrazolo[1,5-a]pyridine-3-carbonitrile] | 250 to 1000 | 250 to 1000 | 0.1 to 100 | 100 to 250 | 0.1 to 100 | 100 to 250 | 0.1 to 100 | 100 to 250 | 250 to 1000 | 250 to 1000 | 250 to 1000 | 250 to 1000 |
| C=CC(=O)N1CC(OC)(C(=O)N2CCC(n3nnc(-c4cc(O[C@H](CO)c5ccccn5)c5c(C#N)cnn5c4)c3C)CC2)C1 [Example 22, (S)-6-(1-(1-(1-acryloyl-3-methoxyazetidine-3-carbonyl)piperidin-4-yl)-5-methyl-1H-1,2,3-triazol-4-yl)-4-(2-hydroxy-1-(pyridin-2-yl)ethoxy)pyrazolo[1,5-a]pyridine-3-carbonitrile] | ≥ 1000 | ≥ 1000 | 0.1 to 100 | 0.1 to 100 | 0.1 to 100 | 0.1 to 100 | 0.1 to 100 | 0.1 to 100 | ≥ 1000 | ≥ 1000 | ≥ 1000 | ≥ 1000 |

Reference: patent US20260209223A1, “FGFR3 INHIBITOR COMPOUNDS” (TYRA BIOSCIENCES, INC., priority 2022, published 2026)
